This passage reports mortality and pest or weed control results from patent EP3325465B1, “PESTICIDALLY ACTIVE PYRAZOLE DERIVATIVES” (Syngenta Participations AG, priority 2015, dated 2017).

Common to all, as to assay type: in vivo
Assay [1] has as its system Euschistus heros (Neotropical Brown Stink Bug). Kind of assay: Euschistus heros soybean plant spray test, N2 nymphs. To be noted: 120 h, application rate of 12.5 ppm, 5 days after infestation, N2 nymphs, read-out: mortality of Euschistus heros. From the text: (§1) The pesticidal/insecticidal properties of the compounds according to embodiments 1 or 2 can be illustrated via the following tests: Spodoptera littoralis (Egyptian cotton leaf worm) • Cotton leaf discs were placed onto agar in 24-well microtiter plates and sprayed with aqueous test solutions prepared from 10'000 ppm DMSO stock solutions. After drying the leaf discs were infested with five L1 larvae. […] Plutella xylostella (Diamond back moth): 24-well microtiter plates with artificial diet were treated with aqueous test solutions prepared from 10'000 ppm DMSO stock solutions by pipetting. After drying, the plates were infested with L2 larvae (10 to 15 per well). The samples were assessed for mortality and growth inhibition in comparison to untreated samples 5 days after infestation. […] Diabrotica balteata, (Corn root worm) • Maize sprouts placed onto an agar layer in 24-well microtiter plates were treated with aqueous test solutions prepared from 10'000 ppm DMSO stock solutions by spraying. After drying, the plates were infested with L2 larvae (6 to 10 per well). […] Thrips tabaci (Onion thrips): Sunflower leaf discs were placed on agar in 24-well microtiter plates and sprayed with aqueous test solutions prepared from 10'000 ppm DMSO stock solutions. After drying the leaf discs were infested with a thrips population of mixed ages. The samples were assessed for mortality 6 days after infestation. […] Tetranychus urticae (Two-spotted spider mite): Bean leaf discs on agar in 24-well microtiter plates were sprayed with aqueous test solutions prepared from 10'000 ppm DMSO stock solutions. After drying the leaf discs were infested with a mite population of mixed ages. The samples were assessed for mortality on mixed population (mobile stages) 8 days after infestation. […] Euschistus heros (Neotropical Brown Stink Bug): • Two weeks old soybean plants were sprayed in a turn table spray chamber with the diluted spray solutions. After drying 2 soybean seeds were added and plants were infested with 10 N2 nymphs of the neotropical brown stink bug Euschistus heros in plastic test boxes. The samples were assessed for mortality in comparison to untreated samples 5 days after infestation. • The following compounds gave at least 80% mortality of Euschistus heros at an application rate of 12.5 ppm: Compounds 3 , 4 , 8 , 39 , 43 , 44 , 46 , 75 , 76 , 77 , 78 , 79 , 80 , 81 , 82 , 88 , 90 , 93 and 95 . Myzus persicae (Green peach aphid): Sunflower leaf discs were placed on agar in a 24-well microtiter plate and sprayed with test solutions at an application rate of 200 ppm. After drying, the leaf discs were infested with an aphid population of mixed ages. After an incubation period of 6 DAT, samples were checked for mortality. The following compounds gave at least 50% mortality of Myzus persicae: Compounds 3 , 4 , 8 , 43 , 44 , 75 , 76 , 77 , 80 , 81 , 90 and 92 . Myzus persicae (Green peach aphid): • Test compounds were applied by pipette into 24 well plates and mixed with Sucrose solution. Application rate: 12.5ppm. The plates were closed with a stretched parafilm. A plastic stencil with 24 holes is placed onto the plate and infested pea seedlings were placed directly on the Parafilm. The infested plate is closed with a gel blotting paper and another plastic stencil and then turned upside down. […]

Assay [2] relates to Spodoptera littoralis (Egyptian cotton leaf worm). The assay can be described thus: Spodoptera littoralis cotton leaf disc spray test, L1 larvae. To be noted: foliar, 72 h.
From the text: as §1

Assay [3] relates to Plutella xylostella (Diamond back moth). Kind of assay: Plutella xylostella artificial diet test, L2 larvae. The following applies: 120 h, application rate of 200 ppm, mortality and growth inhibition 5 days after infestation.
From the text: as §1

Assay [4] concerns Myzus persicae (Green peach aphid). The assay can be described thus: Myzus persicae sunflower leaf disc spray test. To be noted: foliar, 144 h, application rate of 200 ppm, leaf disc spray, 6 DAT, read-out: mortality of Myzus persicae.
From the text: as §1

For assay [5], the system named is Thrips tabaci (Onion thrips). The assay can be described thus: Thrips tabaci sunflower leaf disc spray test. To be noted: foliar, 144 h, application rate of 200 ppm, mortality 6 days after infestation, mixed ages.
From the text: as §1

For assay [6], the system named is Diabrotica balteata, (Corn root worm). The assay can be described thus: Diabrotica balteata maize sprout spray test, L2 larvae. The following applies: 96 h.
From the text: as §1

In assay [7] the test system is Tetranychus urticae (Two-spotted spider mite). Kind of assay: Tetranychus urticae bean leaf disc spray test. The following applies: foliar, 192 h, application rate of 200 ppm, mortality on mixed population (mobile stages) 8 days after infestation.
From the text: as §1

Assay [8] has as its system Myzus persicae (Green peach aphid). Kind of assay: Myzus persicae sucrose solution / Parafilm feeding test. To be noted: 120 h, read-out: mortality of Myzus persicae.
From the text: as §1

[9] abbreviates: application rate of 200 ppm, 3 days after infestation, L1 larvae, read-out: mortality.
[10] abbreviates: application rate of 200 ppm, 4 days after infestation, L2 larvae, read-out: mortality.
Setting [11] is: Application rate: 12.5ppm, sucrose solution, 5 days after infestation.

The structures appear in SMILES notation. Where two headings read alike, the source gives them in different places.

`Cn1nc(C(F)(F)C(F)(F)F)c(C(F)(F)F)c1-c1cc(-c2ccc(Cl)c(C(=O)NC3CC3)c2)on1` [Compound 8, 2-chloro-N-cyclopropyl-5-[3-[2-methyl-5-(1,1,2,2,2-pentafluoroethyl)-4-(trifluoromethyl)pyrazol-3-yl]isoxazol-5-yl]benzamide]: the mortality at 12.5 ppm in assay [1] is ≥ 80%. Also, the mortality at 200 ppm in assay [2] (setting [9]) was ≥ 80%; in assay [4] it was ≥ 50%; in assay [6] (setting [10]), ≥ 80%. In addition, the pest or weed control at 200 ppm in assay [3], in assay [5] and in assay [7] was ≥ 80% in each case.
On to `Cn1nc(C(F)(F)C(F)(F)F)c(C(F)(F)F)c1-c1noc(-c2ccc(Cl)c(C(=O)NC3(C#N)CC3)c2)n1` [Compound 10, 2-Chloro-N-(1-cyanocyclopropyl)-5-[3-[2-methyl-5-(1,1,2,2,2-pentafluoroethyl)-4-(trifluoromethyl)pyrazol-3-yl]-1,2,4-oxadiazol-5-yl]benzamide], for which the mortality at 200 ppm in assay [2] and in assay [6] was ≥ 80% in each case. The pest or weed control at 200 ppm in assay [3] and in assay [5] was ≥ 80% each time. The mortality at 12.5 ppm in assay [8] is ≥ 80%.
As for `Cn1cc(-c2c(C(F)(F)F)c(C(F)(F)C(F)(F)F)nn2C)nc1-c1ccc(Cl)c(C(=O)NC2CC2)c1` [Compound 29, 2-chloro-N-cyclopropyl-5-[1-methyl-4-[2-methyl-5-(1,1,2,2,2-pentafluoroethyl)-4-(trifluoromethyl)pyrazol-3-yl]imidazol-2-yl]benzamide], the mortality at 200 ppm in assay [2] (setting [9]) and in assay [6] (setting [10]) was ≥ 80% each time. The pest or weed control at 200 ppm in assay [3] and in assay [7] was ≥ 80% in each case. For the same compound, in assay [8] (setting [11]), the mortality at 12.5 ppm is ≥ 80%.
As for `Cn1nc(-c2ccc(Cl)c(C(=O)NC3CC3)c2)cc1-c1c(C(F)(F)F)c(C(F)(F)C(F)(F)F)nn1C` [Compound 39, 2-chloro-N-cyclopropyl-5-[1-methyl-5-[2-methyl-5-(1,1,2,2,2-pentafluoroethyl)-4-(trifluoromethyl)pyrazol-3-yl]pyrazol-3-yl]benzamide], the mortality at 12.5 ppm in assay [1] and in assay [8] (setting [11]) was ≥ 80% throughout. For the same compound, the mortality at 200 ppm in assay [2] (setting [9]) and in assay [6] (setting [10]) was ≥ 80% throughout. The pest or weed control at 200 ppm in assay [3], in assay [5] and in assay [7] was ≥ 80% each time.
As to `Cn1nc(C(F)(F)C(F)(F)F)c(C(F)(F)F)c1-c1cc(-c2ccc(Cl)c(C(=O)NC3(C(=O)O)CC3)c2)on1` [Compound 75, 1-[[2-chloro-5-[3-[2-methyl-5-(1,1,2,2,2-pentafluoroethyl)-4-(trifluoromethyl)pyrazol-3-yl]isoxazol-5-yl]benzoyl]amino]cyclopropanecarboxylic acid], the mortality at 12.5 ppm in assay [1] and in assay [8] (setting [11]) was ≥ 80% throughout. For the same compound, the mortality at 200 ppm in assay [4] is ≥ 50%; in assay [6] (setting [10]), ≥ 80%. Further, the pest or weed control at 200 ppm in assay [5] was ≥ 80%.
In the case of `Cn1nc(C(F)(F)C(F)(F)F)c(C(F)(F)F)c1-c1cc(-c2ccc(Cl)c(C(=O)NC3(C(N)=O)CC3)c2)on1` [Compound 77, N-(1-carbamoylcyclopropyl)-2-chloro-5-[3-[2-methyl-5-(1,1,2,2,2-pentafluoroethyl)-4-(trifluoromethyl)pyrazol-3-yl]isoxazol-5-yl]benzamide], the mortality at 12.5 ppm in assay [1] and in assay [8] (setting [11]) was ≥ 80% throughout. The mortality at 200 ppm in assay [2] (setting [9]) is ≥ 80%; in assay [4], ≥ 50%. In addition, the pest or weed control at 200 ppm in assay [3], in assay [5] and in assay [7] was ≥ 80% each time.
For the compound `Cn1nc(C(F)(F)C(F)(F)F)c(C(F)(F)F)c1-c1cc(-c2ccc(Cl)c(C(=O)N[C@H]3C[C@@H]3C(F)(F)F)c2)on1` [Compound 80, 2-chloro-5-[3-[2-methyl-5-(1,1,2,2,2-pentafluoroethyl)-4-(trifluoromethyl)pyrazol-3-yl]isoxazol-5-yl]-N-[(1S,2S)-2-(trifluoromethyl)cyclopropyl]benzamide], the mortality at 12.5 ppm in assay [1] was ≥ 80%. Moreover, the mortality at 200 ppm in assay [2] (setting [9]) was ≥ 80%; in assay [4], ≥ 50%; in assay [6] (setting [10]) it was ≥ 80%. In addition, the pest or weed control at 200 ppm in assay [3], in assay [5] and in assay [7] was ≥ 80% throughout.
Turning to `CCNC(=O)c1cc(-c2cc(-c3c(C(F)(F)F)c(C(F)(F)C(F)(F)F)nn3C)no2)ccc1Cl` [Compound 90, 2-chloro-N-ethyl-5-[3-[2-methyl-5-(1,1,2,2,2-pentafluoroethyl)-4-(trifluoromethyl)pyrazol-3-yl]isoxazol-5-yl]benzamide], the mortality at 12.5 ppm in assay [1] is ≥ 80%. The mortality at 200 ppm is ≥ 80% in assay [2] (setting [9]), ≥ 50% in assay [4] and ≥ 80% in assay [6] (setting [10]). Moreover, the pest or weed control at 200 ppm in assay [3], in assay [5] and in assay [7] was ≥ 80% in each case.
Regarding `CNC(=O)c1cc(-c2cc(-c3c(C(F)(F)F)c(C(F)(F)C(F)(F)F)nn3C)no2)ccc1Cl` [Compound 92, 2-chloro-N-methyl-5-[3-[2-methyl-5-(1,1,2,2,2-pentafluoroethyl)-4-(trifluoromethyl)pyrazol-3-yl]isoxazol-5-yl]benzamide], the mortality at 200 ppm in assay [2] (setting [9]) was ≥ 80%; in assay [4] it was ≥ 50%; in assay [6] (setting [10]) it was ≥ 80%. Also, the pest or weed control at 200 ppm in assay [3], in assay [5] and in assay [7] was ≥ 80% in each case. In assay [8] (setting [11]), the mortality at 12.5 ppm was ≥ 80%.
With `CC(C)NC(=O)c1cc(-c2cc(-c3c(C(F)(F)F)c(C(F)(F)C(F)(F)F)nn3C)no2)ccc1Cl` [Compound 93, 2-chloro-N-isopropyl-5-[3-[2-methyl-5-(1,1,2,2,2-pentafluoroethyl)-4-(trifluoromethyl)pyrazol-3-yl]isoxazol-5-yl]benzamide], the mortality at 12.5 ppm in assay [1] and in assay [8] (setting [11]) was ≥ 80% in each case. Also, the mortality at 200 ppm in assay [2] (setting [9]) and in assay [6] (setting [10]) was ≥ 80% in each case. The pest or weed control at 200 ppm in assay [3], in assay [5] and in assay [7] was ≥ 80% throughout.
On to `Cn1nc(C(F)(F)C(F)(F)F)c(C(F)(F)F)c1-c1cc(-c2ccc(Cl)c(C(=O)NCC(F)(F)F)c2)on1` [Compound 96, 2-chloro-5-[3-[2-methyl-5-(1,1,2,2,2-pentafluoroethyl)-4-(trifluoromethyl)pyrazol-3-yl]isoxazol-5-yl]-N-(2,2,2-trifluoroethyl)benzamide], for which the mortality at 200 ppm in assay [2] (setting [9]) and in assay [6] (setting [10]) was ≥ 80% each time. Further, the pest or weed control at 200 ppm in assay [3] and in assay [5] was ≥ 80% each time. Moreover, the mortality at 12.5 ppm in assay [8] (setting [11]) is ≥ 80%.

What is called mortality is the share of the test organisms that died. As a reminder, the pest or weed control is the degree to which the test organism was suppressed or injured, in per cent. Higher therefore signals strong suppression.
